{"source": "ChEMBL document CHEMBL5247608", "about": "“HIV-1 gp120-CXCR4 recognition probed with synthetic nanomolar affinity D-peptides containing fragments of gp120 V3 loop” (Eur J Med Chem, 2022)", "key": {"[1]": {"biological_target": "T1, C-X-C chemokine receptor type 4 (Homo sapiens, UniProt P61073)", "T1 sequence (P61073 whole entry)": "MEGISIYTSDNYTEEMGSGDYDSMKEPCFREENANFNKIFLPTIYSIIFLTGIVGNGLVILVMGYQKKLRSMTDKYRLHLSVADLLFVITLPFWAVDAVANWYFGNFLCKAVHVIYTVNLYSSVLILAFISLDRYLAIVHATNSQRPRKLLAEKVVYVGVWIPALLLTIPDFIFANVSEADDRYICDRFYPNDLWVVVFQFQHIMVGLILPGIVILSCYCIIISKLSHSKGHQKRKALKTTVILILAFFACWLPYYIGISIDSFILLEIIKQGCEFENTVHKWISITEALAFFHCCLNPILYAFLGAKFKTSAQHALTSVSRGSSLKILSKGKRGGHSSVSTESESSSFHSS", "test": "Displacement of 12G5 mAb from CXCR4 (unknown origin) expressed in CHO cells incubated for 40 mins by spectrophotometric method", "assay_type": "cell-based"}, "[2]": {"biological_target": "C-C chemokine receptor type 5 (Homo sapiens) (UniProt P51681)", "sequence (P51681 whole entry, looked up)": "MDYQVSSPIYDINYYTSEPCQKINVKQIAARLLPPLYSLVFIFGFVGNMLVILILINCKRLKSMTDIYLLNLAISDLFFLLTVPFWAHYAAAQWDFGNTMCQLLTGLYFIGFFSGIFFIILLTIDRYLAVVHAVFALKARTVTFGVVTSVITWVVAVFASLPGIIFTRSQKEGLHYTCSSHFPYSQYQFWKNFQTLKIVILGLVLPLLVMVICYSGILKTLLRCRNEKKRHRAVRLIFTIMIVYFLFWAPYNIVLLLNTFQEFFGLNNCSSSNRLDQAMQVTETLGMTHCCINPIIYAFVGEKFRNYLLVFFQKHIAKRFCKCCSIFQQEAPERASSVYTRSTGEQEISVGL", "test": "Displacement of C-45523 from CCR5 (unknown origin) expressed in CHO cells at 50 uM incubated for 40 mins by competitive binding assay based spectrophotometric method", "assay_type": "cell-based"}, "[3]": {"tested_on": "C-X-C chemokine receptor type 4 (Homo sapiens), P61073 [E288D]", "sequence (P61073 whole entry E288D)": "as the sequence (P61073 whole entry) above, with E288D counted along it", "test": "Displacement of 12G5 mAb from CXCR4 E288D mutant (unknown origin) expressed in CHO cells at 500 nM incubated for 40 mins by spectrophotometric method", "assay_type": "cell-based"}, "[4]": {"tested_on": "Human immunodeficiency virus 1", "test": "Antiviral activity against HIV-1 R5 Bal-6 infected in human PBMC assessed as inhibition of viral replication by measuring reduction in p24 antigen level at 0.1 to 10 uM measured after 5 days by ELISA", "assay_type": "functional, organism-based", "conditions": "dose 0.1-10 µM, time 5.0 day"}, "[5]": {"tested_on": "C-X-C chemokine receptor type 4 (Homo sapiens), P61073 [Y116A]", "sequence (P61073 whole entry Y116A)": "as the sequence (P61073 whole entry) above, with Y116A counted along it", "test": "Displacement of 12G5 mAb from CXCR4 Y116A mutant (unknown origin) expressed in CHO cells at 500 nM incubated for 40 mins by spectrophotometric method", "assay_type": "cell-based"}, "[6]": {"tested_on": "C-X-C chemokine receptor type 4 (Homo sapiens), P61073 [H113A]", "sequence (P61073 whole entry H113A)": "as the sequence (P61073 whole entry) above, with H113A counted along it", "test": "Displacement of 12G5 mAb from CXCR4 H113A mutant (unknown origin) expressed in CHO cells at 500 nM incubated for 40 mins by spectrophotometric method", "assay_type": "cell-based"}, "[7]": {"tested_on": "C-X-C chemokine receptor type 4 (Homo sapiens), P61073 [D193A]", "sequence (P61073 whole entry D193A)": "as the sequence (P61073 whole entry) above, with D193A counted along it", "test": "Displacement of 12G5 mAb from CXCR4 D193A mutant (unknown origin) expressed in CHO cells at 500 nM incubated for 40 mins by spectrophotometric method", "assay_type": "cell-based"}, "[8]": {"tested_on": "C-X-C chemokine receptor type 4 (Homo sapiens), P61073 [W161A]", "sequence (P61073 whole entry W161A)": "as the sequence (P61073 whole entry) above, with W161A counted along it", "test": "Displacement of 12G5 mAb from CXCR4 W161A mutant (unknown origin) expressed in CHO cells at 500 nM incubated for 40 mins by spectrophotometric method", "assay_type": "cell-based"}, "[9]": {"tested_on": "C-X-C chemokine receptor type 4 (Homo sapiens), P61073 [W195A]", "sequence (P61073 whole entry W195A)": "as the sequence (P61073 whole entry) above, with W195A counted along it", "test": "Displacement of 12G5 mAb from CXCR4 W195A mutant (unknown origin) expressed in CHO cells at 500 nM incubated for 40 mins by spectrophotometric method", "assay_type": "cell-based"}, "[10]": {"tested_on": "C-X-C chemokine receptor type 4 (Homo sapiens), P61073 [E288A]", "sequence (P61073 whole entry E288A)": "as the sequence (P61073 whole entry) above, with E288A counted along it", "test": "Displacement of 12G5 mAb from CXCR4 E288A mutant (unknown origin) expressed in CHO cells at 500 nM incubated for 40 mins by spectrophotometric method", "assay_type": "cell-based"}, "[11]": {"test": "Cytotoxicity against human PBMC assessed as reduction in cell viability at 0.016 to 10 uM incubated for 5 days by CellTiter-Blue assay", "assay_type": "toxicity, cell-based", "conditions": "120 h, dose 0.016-10 µM, time 5 day"}, "[12]": {"biological_target": "T1, C-X-C chemokine receptor type 4", "test": "Antagonist activity against EGFP-tagged CXCR4 (unknown origin) transfected in CHO cells assessed as inhibition of SDF-1alpha-induced receptor internalization at 0.01 to 10 uM preincubated for 10 mins followed by SDF-1alpha addition by confocal microscopy", "assay_type": "cell-based", "conditions": "filed as antagonist, dose 0.01-10 µM"}, "[13]": {"tested_on": "C-X-C chemokine receptor type 4 (Homo sapiens), P61073 [E288Q]", "sequence (P61073 whole entry E288Q)": "as the sequence (P61073 whole entry) above, with E288Q counted along it", "test": "Displacement of 12G5 mAb from CXCR4 E288Q mutant (unknown origin) expressed in CHO cells at 500 nM incubated for 40 mins by spectrophotometric method", "assay_type": "cell-based", "conditions": "filed as antagonist"}, "[14]": {"tested_on": "C-X-C chemokine receptor type 4 (Homo sapiens), P61073 [D262N]", "sequence (P61073 whole entry D262N)": "as the sequence (P61073 whole entry) above, with D262N counted along it", "test": "Displacement of 12G5 mAb from CXCR4 D262N mutant (unknown origin) expressed in CHO cells at 500 nM incubated for 40 mins by spectrophotometric method", "assay_type": "cell-based", "conditions": "filed as antagonist"}, "[15]": {"tested_on": "C-X-C chemokine receptor type 4 (Homo sapiens), P61073 [D97A]", "sequence (P61073 whole entry D97A)": "as the sequence (P61073 whole entry) above, with D97A counted along it", "test": "Displacement of 12G5 mAb from CXCR4 D97A mutant (unknown origin) expressed in CHO cells at 500 nM incubated for 40 mins by spectrophotometric method", "assay_type": "cell-based"}, "[16]": {"tested_on": "Human immunodeficiency virus 1", "test": "Antiviral activity against HIV-1 X4 NL4-3 infected in human PBMC assessed as inhibition of viral replication by measuring reduction in p24 antigen level at 10 uM measured after 5 days by ELISA", "assay_type": "functional, organism-based", "conditions": "time 5.0 day"}, "[17]": {"biological_target": "T1, C-X-C chemokine receptor type 4", "test": "Antagonist activity against EGFP-tagged CXCR4 (unknown origin) transfected in CHO cells assessed as inhibition of SDF-1alpha-induced receptor internalization at 10 uM preincubated for 10 mins followed by SDF-1alpha addition by confocal microscopy", "assay_type": "cell-based", "conditions": "filed as antagonist"}, "[18]": {"tested_on": "C-X-C chemokine receptor type 4 (Homo sapiens), P61073 [N119A]", "sequence (P61073 whole entry N119A)": "as the sequence (P61073 whole entry) above, with N119A counted along it", "test": "Displacement of 12G5 mAb from CXCR4 N119A mutant (unknown origin) expressed in CHO cells at 500 nM incubated for 40 mins by spectrophotometric method", "assay_type": "cell-based"}, "[19]": {"tested_on": "C-X-C chemokine receptor type 4 (Homo sapiens), P61073 [Y45A]", "sequence (P61073 whole entry Y45A)": "as the sequence (P61073 whole entry) above, with Y45A counted along it", "test": "Displacement of 12G5 mAb from CXCR4 Y45A mutant (unknown origin) expressed in CHO cells at 500 nM incubated for 40 mins by spectrophotometric method", "assay_type": "cell-based", "conditions": "filed as antagonist"}, "[20]": {"tested_on": "C-X-C chemokine receptor type 4 (Homo sapiens), P61073 [F87A]", "sequence (P61073 whole entry F87A)": "as the sequence (P61073 whole entry) above, with F87A counted along it", "test": "Displacement of 12G5 mAb from CXCR4 F87A mutant (unknown origin) expressed in CHO cells at 500 nM incubated for 40 mins by spectrophotometric method", "assay_type": "cell-based"}, "[21]": {"biological_target": "T1, C-X-C chemokine receptor type 4", "test": "Antagonist activity against CXCR4 in human SUP-T1 cells assessed as inhibition of SDF-1alpha-induced cell migration preincubated with cells for 30 mins followed by incubation with SDF-1alpha for 3 hrs by CellTiter-96 reagent based transwell assay", "conditions": "filed as antagonist, time 210.0 min"}, "[22]": {"tested_on": "C-X-C chemokine receptor type 4 (Homo sapiens), P61073 [W94A]", "sequence (P61073 whole entry W94A)": "as the sequence (P61073 whole entry) above, with W94A counted along it", "test": "Displacement of 12G5 mAb from CXCR4 W94A mutant (unknown origin) expressed in CHO cells at 500 nM incubated for 40 mins by spectrophotometric method", "assay_type": "cell-based"}, "[23]": {"biological_target": "T1, C-X-C chemokine receptor type 4", "test": "Antagonist activity against CXCR4 in human SUP-T1 cells assessed as inhibition of SDF-1alpha-induced intracellular calcium mobilization at 10 uM by Fluo-4AM dye based fluorescence analysis", "assay_type": "cell-based", "conditions": "filed as antagonist"}, "[24]": {"tested_on": "C-X-C chemokine receptor type 4 (Homo sapiens), P61073 [T117A]", "sequence (P61073 whole entry T117A)": "as the sequence (P61073 whole entry) above, with T117A counted along it", "test": "Displacement of 12G5 mAb from CXCR4 T117A mutant (unknown origin) expressed in CHO cells at 500 nM incubated for 40 mins by spectrophotometric method", "assay_type": "cell-based", "conditions": "filed as antagonist"}, "[25]": {"biological_target": "T1, C-X-C chemokine receptor type 4", "test": "Antagonist activity against CXCR4 in human SUP-T1 cells assessed as inhibition of SDF-1alpha-induced cell migration at 10 uM preincubated with cells for 30 mins followed by incubation with SDF-1alpha for 3 hrs by CellTiter-96 reagent based transwell assay", "conditions": "filed as antagonist, time 210.0 min"}, "[26]": {"biological_target": "T1, C-X-C chemokine receptor type 4", "test": "Antagonist activity against CXCR4 in human SUP-T1 cells assessed as inhibition of SDF-1alpha-induced intracellular calcium mobilization by Fluo-4AM dye based fluorescence analysis", "assay_type": "cell-based", "conditions": "filed as antagonist, dose 0.01-10 µM"}}, "note": "Activity calls are given as the source filed them. The rule behind the calls is not given here. Where a SMILES comes first, the peptide text is derived from it. [ ]: non-standard residue; d: D form."}
{"smiles": "CC(C)C[C@@H](N)C(=O)NCC(=O)N[C@H](C)C(=O)N[C@H](CO)C(=O)N[C@H](Cc1c[nH]c2ccccc12)C(=O)N[C@H](Cc1cnc[nH]1)C(=O)N[C@H](CCCNC(=N)N)C(=O)N1CCC[C@@H]1C(=O)N[C@H](CC(=O)O)C(=O)N[C@H](CCCCN)C(=O)N[C@H](CCCCN)C(=O)N[C@H](CCCNC(=N)N)C(N)=O", "note": "(H-[dL]G[dA][dS][dW][dH][dR][dP][dD][dK][dK][dR]-NH2)", "values": [{"measurement": "IC50", "setting": "[1]", "value": 0.531, "unit": "µM"}]}
{"smiles": "CC(C)C[C@@H](N)C(=O)NCC(=O)N[C@H](C)C(=O)N[C@H](CO)C(=O)N[C@H](Cc1c[nH]c2ccccc12)C(=O)N[C@H](Cc1cnc[nH]1)C(=O)N[C@H](CCCNC(=N)N)C(=O)N1CCC[C@@H]1C(=O)N[C@H](CC(=O)O)C(=O)N[C@H](CCCCN)C(=O)N[C@H](CCCCN)C(=O)N[C@H](CCCNC(=N)N)C(=O)N(CCCCCC(=O)O)[C@@H](CCCCN)C(=O)N[C@@H](CCCNC(=N)N)C(=O)N[C@@H](CCCCN)C(=O)N[C@H](CS)C(=O)N[C@H](C(=O)N[C@@H](CCCNC(=N)N)C(=O)N1CCC[C@H]1C(=O)N[C@@H](CC(N)=O)C(=O)N[C@@H](CC(N)=O)C(=O)N[C@@H](CC(N)=O)C(=O)N[C@H](C(N)=O)[C@H](C)O)[C@H](C)O", "values": [{"measurement": "inhibition", "setting": "[2]", "value": 10.4, "unit": "%"}, {"measurement": "IC50", "setting": "[1]", "value": 0.048, "unit": "µM"}]}
{"smiles": "CC(C)C[C@@H](N)C(=O)NCC(=O)N[C@H](C)C(=O)N[C@H](CO)C(=O)N[C@H](Cc1c[nH]c2ccccc12)C(=O)N[C@H](Cc1cnc[nH]1)C(=O)N[C@H](CCCNC(=N)N)C(=O)N1CCC[C@@H]1C(=O)N[C@H](CC(=O)O)C(=O)N[C@H](CCCCN)C(=O)N[C@H](CCCCN)C(=O)N[C@H](CCCNC(=N)N)C(=O)N(CCCCCC(=O)O)[C@@H](CCCCN)C(=O)N[C@@H](CCCNC(=N)N)C(=O)N[C@@H](CCCCN)C(=O)N[C@@H](CCC(N)=O)C(=O)N[C@@H](CCCNC(=N)N)C(=O)NCC(=O)N1CCC[C@H]1C(=O)NCC(=O)N[C@@H](CCCNC(=N)N)C(=O)N[C@@H](C)C(=O)N[C@@H](Cc1ccccc1)C(N)=O", "values": [{"measurement": "inhibition", "setting": "[3]", "value": "inactive"}, {"measurement": "Activity", "setting": "[4]", "value": "inactive"}, {"measurement": "inhibition", "setting": "[5]", "value": "inactive"}, {"measurement": "inhibition", "setting": "[6]", "value": "inactive"}, {"measurement": "inhibition", "setting": "[7]", "value": "inactive"}, {"measurement": "inhibition", "setting": "[8]", "value": "inactive"}, {"measurement": "inhibition", "setting": "[9]", "value": "inactive"}, {"measurement": "inhibition", "setting": "[2]", "value": 17.2, "unit": "%"}, {"measurement": "inhibition", "setting": "[10]", "value": "inactive"}, {"measurement": "Activity", "setting": "[11]", "value": "Non-Toxic"}, {"measurement": "inhibition", "setting": "[12]", "value": "Active"}, {"measurement": "inhibition", "setting": "[13]", "value": "Active"}, {"measurement": "inhibition", "setting": "[14]", "value": "Active"}, {"measurement": "inhibition", "setting": "[15]", "value": "inactive"}, {"measurement": "Activity", "setting": "[16]", "value": "Active"}, {"measurement": "inhibition", "setting": "[17]", "value": 100, "unit": "%"}, {"measurement": "inhibition", "setting": "[18]", "value": "inactive"}, {"measurement": "inhibition", "setting": "[19]", "value": "Active"}, {"measurement": "inhibition", "setting": "[20]", "value": "inactive"}, {"measurement": "inhibition", "setting": "[21]", "value": "Dose-Dependent Effect"}, {"measurement": "inhibition", "setting": "[22]", "value": "inactive"}, {"measurement": "inhibition", "setting": "[23]", "value": 100, "unit": "%"}, {"measurement": "inhibition", "setting": "[24]", "value": "Active"}, {"measurement": "inhibition", "setting": "[25]", "value": 100, "unit": "%"}, {"measurement": "inhibition", "setting": "[26]", "value": "Dose-Dependent Effect"}]}
{"smiles": "CC(C)C[C@@H](N)C(=O)NCC(=O)N[C@H](C)C(=O)N[C@H](CO)C(=O)N[C@H](Cc1c[nH]c2ccccc12)C(=O)N[C@H](Cc1cnc[nH]1)C(=O)N[C@H](CCCNC(=N)N)C(=O)N1CCC[C@@H]1C(=O)N[C@H](CC(=O)O)C(=O)N[C@H](CCCCN)C(=O)N[C@H](CCCCN)C(=O)N[C@H](CCCNC(=N)N)C(=O)N(CCCCCC(=O)O)[C@@H](CCCCN[C@H](CS)C(=O)N[C@H](C(=O)N[C@@H](CCCNC(=N)N)C(=O)N1CCC[C@H]1C(=O)N[C@@H](CC(N)=O)C(=O)N[C@@H](CC(N)=O)C(=O)N[C@@H](CC(N)=O)C(=O)N[C@H](C(=O)N[C@@H](CCCCN)C(=O)N[C@@H](CCCNC(=N)N)C(N)=O)[C@H](C)O)[C@H](C)O)C(N)=O", "values": [{"measurement": "Activity", "setting": "[4]", "value": "inactive"}, {"measurement": "Activity", "setting": "[11]", "value": "Non-Toxic"}, {"measurement": "Activity", "setting": "[16]", "value": "Active"}, {"measurement": "IC50", "setting": "[1]", "value": 0.0254, "unit": "µM"}]}
